Data reported in EP1586565A1, “Substituted polycyclic aryl and heteroaryl pyrazinones useful for selective inhibition of the coagulation cascade” (Pharmacia Corporation, priority 1999, dated 2000).

Molecular target: T1, Human factor Xa (Homo sapiens, UniProt P00742)
T1 construct: leads from XII to XIIa to XIa to IXa and to the conversion of X to Xa; purchased Enzyme Research Laboratories, South Bend IN
Assay: Xa Assay
Type: biochemical
Conditions: % inhibition at 30 µM (cells with % or %@30, bare 0)

T1 sequence (P00742 235-488 limits assumed): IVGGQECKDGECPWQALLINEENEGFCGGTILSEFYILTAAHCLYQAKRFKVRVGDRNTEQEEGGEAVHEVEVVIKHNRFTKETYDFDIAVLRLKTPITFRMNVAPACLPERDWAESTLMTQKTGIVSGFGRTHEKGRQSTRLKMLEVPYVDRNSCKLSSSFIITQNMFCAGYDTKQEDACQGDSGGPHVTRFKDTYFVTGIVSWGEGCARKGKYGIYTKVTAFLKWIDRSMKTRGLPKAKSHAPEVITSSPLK
T1 sequence (P00742 41-179 limits assumed): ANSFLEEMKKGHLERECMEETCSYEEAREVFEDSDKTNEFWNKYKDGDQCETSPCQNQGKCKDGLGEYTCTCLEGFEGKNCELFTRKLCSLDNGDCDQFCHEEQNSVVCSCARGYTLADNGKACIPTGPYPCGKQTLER

SMILES | IC50 or % Inhibition Factor Xa (30 µM) [%]
Cc1c(Cl)nc(NCc2ccccc2)c(=O)n1CC(=O)NCc1ccc(C(=N)N)cc1 [1471-1] | 10
Cc1c(Cl)nc(NCCc2ccc(Cl)cc2)c(=O)n1CC(=O)NCc1ccc(C(=N)N)cc1 [1471-2] | 10
Cc1c(Cl)nc(NCc2ccncc2)c(=O)n1CC(=O)NCc1ccc(C(=N)N)cc1 [1471-3] | 0
Cc1c(Cl)nc(NCCN2CCOCC2)c(=O)n1CC(=O)NCc1ccc(C(=N)N)cc1 [1471-4] | 0
Cc1c(Cl)nc(NCCc2ccncc2)c(=O)n1CC(=O)NCc1ccc(C(=N)N)cc1 [1471-5] | 12
Cc1c(Cl)nc(NCCc2cccc(Cl)c2)c(=O)n1CC(=O)NCc1ccc(C(=N)N)cc1 [1471-6] | 14
Cc1c(Cl)nc(NCCc2ccccc2)c(=O)n1CC(=O)NCc1ccc(C(=N)N)cc1 [1471-7] | 4
Cc1c(Cl)nc(NCCc2cccnc2)c(=O)n1CC(=O)NCc1ccc(C(=N)N)cc1 [1471-8] | 27
N=C(N)c1ccc(CNC(=O)Cn2c(-c3ccccc3)c(Cl)nc(NCc3ccccc3)c2=O)cc1 [1471-9] | 29
N=C(N)c1ccc(CNC(=O)Cn2c(-c3ccccc3)c(Cl)nc(NCCc3ccc(Cl)cc3)c2=O)cc1 [1471-10] | 45
N=C(N)c1ccc(CNC(=O)Cn2c(-c3ccccc3)c(Cl)nc(NCc3ccncc3)c2=O)cc1 [1471-11] | 9
N=C(N)c1ccc(CNC(=O)Cn2c(-c3ccccc3)c(Cl)nc(NCCN3CCOCC3)c2=O)cc1 [1471-12] | 9
N=C(N)c1ccc(CNC(=O)Cn2c(-c3ccccc3)c(Cl)nc(NCCc3ccncc3)c2=O)cc1 [1471-13] | 0
N=C(N)c1ccc(CNC(=O)Cn2c(-c3ccccc3)c(Cl)nc(NCCc3cccnc3)c2=O)cc1 [1471-16] | 23
N=C(N)c1ccc(CNC(=O)Cn2c(-c3ccc(Cl)cc3)c(Cl)nc(NCCc3ccc(Cl)cc3)c2=O)cc1 [1471-18] | 26
N=C(N)c1ccc(CNC(=O)Cn2c(-c3ccc(Cl)cc3)c(Cl)nc(NCCc3cccc(Cl)c3)c2=O)cc1 [1471-22] | 28

SMILES | IC50 or % Inhibition Factor Xa (30 µM) [%]
N=C(N)c1ccc(CNC(=O)Cn2c(-c3ccc(Cl)cc3)c(Cl)nc(NCCc3ccccc3)c2=O)cc1 [1471-23] | 36
N=C(N)c1ccc(CNC(=O)Cn2c(-c3cccc(Cl)c3)c(Cl)nc(NCc3ccccc3)c2=O)cc1 [1471-25] | 31
N=C(N)c1ccc(CNC(=O)Cn2c(-c3cccc(Cl)c3)c(Cl)nc(NCc3ccncc3)c2=O)cc1 [1471-27] | 16
N=C(N)c1ccc(CNC(=O)Cn2c(-c3cccc(Cl)c3)c(Cl)nc(NCCN3CCOCC3)c2=O)cc1 [1471-28] | 8
N=C(N)c1ccc(CNC(=O)Cn2c(-c3cccc(Cl)c3)c(Cl)nc(NCCc3ccncc3)c2=O)cc1 [1471-29] | 21
N=C(N)c1ccc(CNC(=O)Cn2c(-c3cccc(Cl)c3)c(Cl)nc(NCCc3cccc(Cl)c3)c2=O)cc1 [1471-30] | 41
N=C(N)c1ccc(CNC(=O)Cn2c(-c3cccc(Cl)c3)c(Cl)nc(NCCc3ccccc3)c2=O)cc1 [1471-31] | 17
N=C(N)c1ccc(CNC(=O)Cn2c(-c3cccc(Cl)c3)c(Cl)nc(NCCc3cccnc3)c2=O)cc1 [1471-32] | 25
COc1ccc(-c2c(Cl)nc(NCCc3ccc(Cl)cc3)c(=O)n2CC(=O)NCc2ccc(C(=N)N)cc2)cc1 [1471-34] | 24
N=C(N)c1ccc(CNC(=O)Cn2c(-c3ccc4c(c3)OCO4)c(Cl)nc(NCc3ccccc3)c2=O)cc1 [1471-41] | 34
N=C(N)c1ccc(CNC(=O)Cn2c(-c3ccc4c(c3)OCO4)c(Cl)nc(NCCc3ccc(Cl)cc3)c2=O)cc1 [1471-42] | 15
N=C(N)c1ccc(CNC(=O)Cn2c(-c3ccc4c(c3)OCO4)c(Cl)nc(NCc3ccncc3)c2=O)cc1 [1471-43] | 18
N=C(N)c1ccc(CNC(=O)Cn2c(-c3ccc4c(c3)OCO4)c(Cl)nc(NCCc3ccncc3)c2=O)cc1 [1471-45] | 24
N=C(N)c1ccc(CNC(=O)Cn2c(-c3ccc4c(c3)OCO4)c(Cl)nc(NCCc3cccc(Cl)c3)c2=O)cc1 [1471-46] | 21
N=C(N)c1ccc(CNC(=O)Cn2c(-c3ccc4c(c3)OCO4)c(Cl)nc(NCCc3ccccc3)c2=O)cc1 [1471-47] | 22
N=C(N)c1ccc(CNC(=O)Cn2c(-c3ccc4c(c3)OCO4)c(Cl)nc(NCCc3cccnc3)c2=O)cc1 [1471-48] | 17

Next, values leading:

IC50 or % Inhibition Factor Xa (30 µM) [%] | SMILES
0 | CCc1c(Cl)nc(NCCc2ccc(Cl)cc2)c(=O)n1CC(=O)NCc1ccc(C(=N)N)cc1 [1471-58]
0 | CCc1c(Cl)nc(NCc2ccncc2)c(=O)n1CC(=O)NCc1ccc(C(=N)N)cc1 [1471-59]
0 | CCc1c(Cl)nc(NCCN2CCOCC2)c(=O)n1CC(=O)NCc1ccc(C(=N)N)cc1 [1471-60]
0 | CCc1c(Cl)nc(NCCc2ccncc2)c(=O)n1CC(=O)NCc1ccc(C(=N)N)cc1 [1471-61]
2 | CCc1c(Cl)nc(NCCc2ccccc2)c(=O)n1CC(=O)NCc1ccc(C(=N)N)cc1 [1471-63]
2 | CCc1c(Cl)nc(NCCc2cccnc2)c(=O)n1CC(=O)NCc1ccc(C(=N)N)cc1 [1471-64]
9 | N=C(N)c1ccc(CNC(=O)Cn2c(-c3ccccc3)c(Cl)nc(NC3CCc4ccccc43)c2=O)cc1 (stereo not shown) [1507-02]
21 | N=C(N)c1ccc(CNC(=O)Cn2c(-c3ccccc3)c(Cl)nc(NCc3ccccc3Cl)c2=O)cc1 [1507-03]
10 | N=C(N)c1ccc(CNC(=O)Cn2c(-c3ccccc3)c(Cl)nc(NCCCn3ccnc3)c2=O)cc1 [1507-05]
13 | N=C(N)c1ccc(CNC(=O)Cn2c(-c3ccccc3)c(Cl)nc(NCC(c3ccccc3)c3ccccc3)c2=O)cc1 [1507-09]
18 | N=C(N)c1ccc(CNC(=O)Cn2c(-c3ccccc3)c(Cl)nc(NC3CCCc4ccccc43)c2=O)cc1 (stereo not shown) [1507-16]
16 | N=C(N)c1ccc(CNC(=O)Cn2c(-c3ccccc3)c(Cl)nc(NCCC3=CCCCC3)c2=O)cc1 [1507-17]
4 | N=C(N)c1ccc(CNC(=O)Cn2c(-c3ccccc3)c(Cl)nc(NCCCN3CCCC3=O)c2=O)cc1 [1507-19]
23 | N=C(N)c1ccc(CNC(=O)Cn2c(-c3ccccc3)c(Cl)nc(NC3CCC3)c2=O)cc1 [1507-21]
4 | N=C(N)c1ccc(CNC(=O)Cn2c(-c3ccccc3)c(Cl)nc(NC3CCCCCC3)c2=O)cc1 [1507-29]
28 | N=C(N)c1ccc(CNC(=O)Cn2c(-c3ccccc3)c(Cl)nc(NC(c3ccccc3)c3ccccc3)c2=O)cc1 [1507-35]
0 | N=C(N)c1ccc(CNC(=O)Cn2c(-c3ccccc3)c(Cl)nc(NC3CCS(=O)(=O)C3)c2=O)cc1 (stereo not shown) [1507-36]
11 | N=C(N)c1ccc(CNC(=O)Cn2c(-c3ccccc3)c(Cl)nc(NCc3cc(C(F)(F)F)cc(C(F)(F)F)c3)c2=O)cc1 [1507-40]

IC50 or % Inhibition Factor Xa (30 µM) [%] | SMILES
21 | N=C(N)c1ccc(CNC(=O)Cn2c(-c3ccccc3)c(Cl)nc(NCCCCc3ccccc3)c2=O)cc1 [1507-43]
9 | N=C(N)c1ccc(CNC(=O)Cn2c(-c3ccccc3)c(Cl)nc(NCCc3ccc(Cl)c(Cl)c3)c2=O)cc1 [1507-44]
8 | N=C(N)c1ccc(CNC(=O)Cn2c(-c3ccccc3)c(Cl)nc(NCc3ccc(Cl)cc3)c2=O)cc1 [1507-46]
19 | CN(C)CCCNc1nc(Cl)c(-c2ccccc2)n(CC(=O)NCc2ccc(C(=N)N)cc2)c1=O [1507-47]
4 | N=C(N)c1ccc(CNC(=O)Cn2c(-c3ccccc3)c(Cl)nc(NCC3COc4ccccc4O3)c2=O)cc1 (stereo not shown) [1512-01]
3 | COc1cccc(CNc2nc(Cl)c(-c3ccccc3)n(CC(=O)NCc3ccc(C(=N)N)cc3)c2=O)c1OC [1512-02]
10 | COc1ccc(CCNc2nc(Cl)c(-c3ccccc3)n(CC(=O)NCc3ccc(C(=N)N)cc3)c2=O)cc1OC [1512-05]
4 | N=C(N)c1ccc(CNC(=O)Cn2c(-c3ccccc3)c(Cl)nc(NCCCc3ccccc3)c2=O)cc1 [1512-06]
5 | CCOc1ccccc1CNc1nc(Cl)c(-c2ccccc2)n(CC(=O)NCc2ccc(C(=N)N)cc2)c1=O [1512-11]
5 | CCCCC(CC)Nc1nc(Cl)c(-c2ccccc2)n(CC(=O)NCc2ccc(C(=N)N)cc2)c1=O (stereo not shown) [1512-12]
7 | CCCCNc1nc(Cl)c(-c2ccccc2)n(CC(=O)NCc2ccc(C(=N)N)cc2)c1=O [1512-14]
6 | CN(C)CCNc1nc(Cl)c(-c2ccccc2)n(CC(=O)NCc2ccc(C(=N)N)cc2)c1=O [1512-15]
10 | N=C(N)c1ccc(CNC(=O)Cn2c(-c3ccccc3)c(Cl)nc(NC3CCCCCC3)c2=O)cc1 [1512-16]
3 | N=C(N)c1ccc(CNC(=O)Cn2c(-c3ccccc3)c(Cl)nc(NC3CCS(=O)(=O)C3)c2=O)cc1 (stereo not shown) [1512-19]
6 | CC1CCCC(Nc2nc(Cl)c(-c3ccccc3)n(CC(=O)NCc3ccc(C(=N)N)cc3)c2=O)C1C (stereo not shown) [1512-23]
5 | N=C(N)c1ccc(CNC(=O)Cn2c(-c3ccccc3)c(Cl)nc(NCc3ccc(C(F)(F)F)cc3F)c2=O)cc1 [1512-26]
3 | N=C(N)c1ccc(CNC(=O)Cn2c(-c3ccccc3)c(Cl)nc(NCc3cc(C(F)(F)F)ccc3F)c2=O)cc1 [1512-27]
